Source: patent US8163709B2, “TAK1-D mediated induction of cell death in human cancer cells by specific sequence short double-stranded RNAS” (Board of Regents of the University of Texas System, priority 2008, dated 2012)
Entries after “also recorded” stand apart in the source; their conditions may differ.

Tests used:
p38 MAP kinase pathway = assay: Activation of the p38 MAP kinase pathway in H460 cells (Western blot); type: cell-based, human; details: for activation of the p38 MAP kinase pathway (phosphorylation of MKK3/6, p38 MAPK): H460 cells, 20 nM RNA, 2-6 h
Description: Both siRNAs were directed against the mRNA of the same gene TLK1.

TAK1-D/TAB1 complex = target: T1, TAK1-D/TAB1 complex (Homo sapiens, UniProt O43318); assay: In vitro kinase assay with purified FLAG-TAK1-D/His-TAB1; type: biochemical; details: purified proteins, cell-free
T1 construct: made in house; host or cells: HeLa cells
T1 sequence (O43318 1-491 isoform O43318-4): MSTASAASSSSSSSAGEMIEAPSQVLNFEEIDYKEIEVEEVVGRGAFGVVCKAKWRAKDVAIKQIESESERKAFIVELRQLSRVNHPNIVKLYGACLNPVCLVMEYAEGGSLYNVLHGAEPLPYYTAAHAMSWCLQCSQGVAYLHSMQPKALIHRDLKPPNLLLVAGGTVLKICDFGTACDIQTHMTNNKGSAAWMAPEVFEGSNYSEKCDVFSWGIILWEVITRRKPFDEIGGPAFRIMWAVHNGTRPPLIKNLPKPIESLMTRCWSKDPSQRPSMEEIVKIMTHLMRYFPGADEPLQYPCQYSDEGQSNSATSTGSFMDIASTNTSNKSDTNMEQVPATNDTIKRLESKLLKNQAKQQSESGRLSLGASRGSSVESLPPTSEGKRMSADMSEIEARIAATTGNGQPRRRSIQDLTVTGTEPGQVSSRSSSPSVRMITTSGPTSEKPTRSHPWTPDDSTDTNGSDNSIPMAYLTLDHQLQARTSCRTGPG
T1 sequence (Q15750 1-504 partner): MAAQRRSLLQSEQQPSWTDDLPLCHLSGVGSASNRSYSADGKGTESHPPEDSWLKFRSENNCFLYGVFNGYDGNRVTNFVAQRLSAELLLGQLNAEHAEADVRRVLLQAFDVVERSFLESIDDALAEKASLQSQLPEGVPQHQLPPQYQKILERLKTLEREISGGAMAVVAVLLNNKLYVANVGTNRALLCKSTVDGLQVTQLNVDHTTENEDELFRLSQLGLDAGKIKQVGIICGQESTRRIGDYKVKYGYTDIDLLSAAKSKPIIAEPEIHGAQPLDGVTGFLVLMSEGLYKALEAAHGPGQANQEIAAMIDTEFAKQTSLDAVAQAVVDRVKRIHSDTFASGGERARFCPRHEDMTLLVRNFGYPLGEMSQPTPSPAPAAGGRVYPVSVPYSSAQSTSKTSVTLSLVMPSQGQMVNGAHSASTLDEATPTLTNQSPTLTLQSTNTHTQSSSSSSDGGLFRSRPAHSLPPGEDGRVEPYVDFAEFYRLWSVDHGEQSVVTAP
Description: FIGS. 2A-C: Effect of dsRNAs on the activity of purified recombinant TAK1-D protein. (FIG. 2A) In vitro kinase assay showing the activation of TAK1-D autophosphorylation by siRNA si5. FLAG-tagged TAK1-D and His-tagged TAB1 were coexpressed in Hela cells and purified by immunoprecipitation with anti FLAG antibody. […] Error bars indicate the standard error of 3 experiments.
To verify if siRNA si5 indeed interacts with TAK1-D directly, the activation of the kinase was studied in vitro using purified proteins. […] To test whether the increased activation of the TAK1-D/TAB1 complex by siRNA si5 is caused by an increased affinity of the RNA molecule to the kinase, binding of radiolabeled siRNAs to immunoprecipitated FLAG tagged TAK1-D was measured. In FIG. 2C the amount of RNA bound to immobilized FLAG-TAK1-D is given.
FLAG-tagged TAK1-D and HIS-tagged TAB1 were co-expressed in HeLa cells and the proteins were purified through immunoprecipitation with an anti-FLAG antibody.

TLK1 = TLK1 post-transcriptional silencing in HeLa cells (Western blot); type: cell-based, human; details: 48 h after transfection
Procedure: In order to test whether dsRNA molecules show the same cellular uptake and stability the efficiency of these molecules to post-transcriptionally silence the expression of TLK1 was determined as si6 as well as si5 siRNA are directed against the mRNA of this protein. […] As a loading control the unchanged expression levels of TAK1-A/B and 3-tubulin are shown in the two lower panels.

cdc25A = cdc25A phosphorylation in nuclei of NCI-H460 cells; type: cell-based, human; details: 2 h
Description: P38 MAPK as well as SPK/JNK have a large number of downstream targets. Amongst these, the phosphorylation of the cell cycle control phosphatase cdc25 (Bulavin et al., 2001; Goss et al., 2003) are of particular interest, as these phosphorylations have the potential to transduce an immediate and direct effect of TAK1-D activation to the cell cycle. […] In contrast, both cdc25A and cdc25B were found in the nucleus and therefore capable of cell cycle control. […] The occurrence of this shifted form of cdc25A is indicative of phosphorylation and inactivation of cdc25A (Zhao et al., 2002). The amount of cdc25B in the nucleus decreases with kinetics similar to the phosphorylation of cdc25A, indicative for a phosphorylation dependent translocation and proteolytic digestion of cdc25B (Cans et al., 1999). Therefore, it can be concluded that activation of TAK1-D in NCI-H460 cells leads to an inactivation of cdc25A and cdc25B through p38 MAPK and SAPK/JNK mediated phosphorylation and proteolytic destruction.

HCC2279 cells = assay: Crystal Violet staining of HCC2279 cells; type: cell-based, human; details: 48 h
Procedure: To test whether the dsRNA mediated activation of the stress-activated protein kinase cascade also leads to cell death in HCC2279 cells, the cells were plated in a 12 well multi-well plated, treated with siRNA si5 or as a control with siRNA si6 and stained with Crystal Violet 48 h later. […] The data presented as well as the widespread expression of Tak1-D in tissues like lung, brain, liver, and prostate (Dempsey et al., 2000) makes targeted activation of TAK1-D by specific dsRNA an interesting treatment opportunity for these types of cancer.

TAK1-D = target: T2, TAK1-D (Homo sapiens, UniProt O43318); assay: TAK1-D autophosphorylation on T184/T187 in H460 cells (Western blot, phospho-specific antibody); type: cell-based; parameters: endogenous in cells; host or cells: NCI-H460; details: for activating autophosphorylation (activation) of TAK1-D on T184 and T187: H460 cells, RNA transfected (20 nM), Western blot
T2 sequence (O43318 1-491 isoform O43318-4): T1 sequence (O43318 1-491 isoform O43318-4)
Procedure: In an effort to identify the MAPKKK responsible for the activation of the p38 MAP kinase and SAPK/JNK pathway, several of these kinases were screened for siRNA si5 mediated activation.
Immunoblot analysis. Western blotting was performed exactly as described previously (Kodym et al., 2008b). In addition to the primary antibodies previously mentioned (Kodym et al., 2008b) the following antibodies were used: S6 ribosomal protein (Cell Signaling #2217), DPM1 (Santa Cruz #sc-15836, Santa Cruz, Calif., USA), and Histone H3 (Cell Signaling #9715).

| Substance | induced activating phosphorylation of p38 MAPK in cells expressing dominant-negative Tak1-D (K63W) (p38 MAP kinase pathway; H460, adenoviral K63W vs β-galactosidase vector, 20 nM dsRNA 4 h) | activation of the p38 MAP kinase pathway (phosphorylation of MKK3/6, p38 MAPK) (p38 MAP kinase pathway) | activation of the p38 MAP kinase pathway (phosphorylation of MKK3/6, p38 MAPK) (p38 MAP kinase pathway; listed as Si5) | activating phosphorylation of p38 MAP kinase in TAK1-D/K63W transfected cells (p38 MAP kinase pathway; H460 stably transfected with K63W vs wt and vector, 4 h) | autophosphorylation activity of the TAK1-D/TAB1 complex (TAK1-D/TAB1 complex) | expression level of TLK1 (TLK1) | phosphorylation of nuclear cdc25A (intensity of the upper band) (cdc25A) | effect on cells, Crystal Violet (HCC2279 cells; HCC2279, 5 nM) | effect on cells, Crystal Violet (HCC2279 cells; HCC2279, 10 to 20 nM) | activating autophosphorylation (activation) of TAK1-D on T184 and T187 (TAK1-D) | autophosphorylation signal of Tak1-D six hours after addition (TAK1-D; NCI-H460 cells, 6 h) | toxicity, crystal violet (HCC2279 cells; HCC2279, concentration range tested) |
| --- | --- | --- | --- | --- | --- | --- | --- | --- | --- | --- | --- | --- |
| si5: 21-mer siRNA against TLK1 mRNA: GGCUUUUGACCUUUAUGAAtt (SEQ ID NO: 2) / ttCCGAAAACUGGAAAUACUU (SEQ ID NO: 3) (sense GGCUUUUGACCUUUAUGAATT; antisense TTCCGAAAACUGGAAAUACUU; chemistry not given here; one strand is listed 3' to 5') | significantly reduced | activation of the p38 MAP kinase pathway; also recorded: able to activate Tak1-D and consecutively p38 MAPK; also recorded: activate the pathway most effectively | phosphorylation and activation of MKK3/6 as well as MKK4 | very significant reduction; also recorded: significantly reduced | increase in autophosphorylation activity; also recorded: increased the autophosphorylation activity | drastically reduce the expression level; also recorded: reduced to almost undetectable levels; also recorded: very significant reduction in the expression of TLK1 | increases in intensity within 2 h; also recorded: increased phosphorylation as early as 2 h | small effect on cell growth | significant cell death | a si5 induced signal was detected; also recorded: able to activate Tak1-D; also recorded: leads to phosphorylation of TAK1-D | significantly stronger autophosphorylation signal | – |
| si6: control 21-mer siRNA against TLK1 mRNA: GGGUGGAAAUGGCUCAAGUtt (SEQ ID NO: 4) / gtCCCACCUUUACCGAGUUCA (SEQ ID NO: 5) (sense GGGUGGAAAUGGCUCAAGUTT; antisense GTCCCACCUUUACCGAGUUCA; chemistry not given here; one strand is listed 3' to 5') [reference compound] | – | had no effect; also recorded: does not occur; also recorded: No activation | – | – | not | drastically reduce the expression level; also recorded: reduced to almost undetectable levels; also recorded: very significant reduction in the expression of TLK1 | – | – | – | not triggered | – | no significant toxicity |
